pKd: −log10 of the molar value.

Sequence of human STAT6 (P42226 122-658): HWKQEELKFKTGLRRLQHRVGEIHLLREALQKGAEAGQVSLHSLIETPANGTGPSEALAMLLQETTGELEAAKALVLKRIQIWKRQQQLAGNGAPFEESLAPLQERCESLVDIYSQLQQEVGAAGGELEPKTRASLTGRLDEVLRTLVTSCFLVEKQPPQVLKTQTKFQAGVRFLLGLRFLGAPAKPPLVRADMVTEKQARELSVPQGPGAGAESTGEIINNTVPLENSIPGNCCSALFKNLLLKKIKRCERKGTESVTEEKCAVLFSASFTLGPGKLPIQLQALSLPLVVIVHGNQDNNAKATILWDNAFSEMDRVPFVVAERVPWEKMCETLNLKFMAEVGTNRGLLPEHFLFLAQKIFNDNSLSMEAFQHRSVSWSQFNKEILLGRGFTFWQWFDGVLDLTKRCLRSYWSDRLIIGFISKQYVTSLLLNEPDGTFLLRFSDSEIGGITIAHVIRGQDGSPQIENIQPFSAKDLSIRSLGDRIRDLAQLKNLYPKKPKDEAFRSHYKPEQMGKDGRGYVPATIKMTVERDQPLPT

The target in the assay is human STAT6 (Homo sapiens (Human), UniProt P42226). Description: Surface plasmon resonance assay (Biacore 8K, binding to immobilized STAT6). The following applies: human STAT6 aa122-658, N-terminal His-tag, CM5 chip, 25° C.; geometric mean; read-out: STAT6 SPR Kd. The protocol:
Biacore instruments from the 8K-series (Cytiva) were used, and measurements were performed at 25° C. Human STAT6 (truncated, aa122-658, with N-terminal His-tag, expressed in insect cells) was immobilized in the active flow cells on a CM5 chip using amine-coupling (default settings) at 10 μg/ml in 10 mM acetate buffer pH 5.5, at a contact time of 120-420 sec. and a flow rate of 10 μl/min. Reference flow cells were deactivated using blank immobilization. PBS-P+ (Cytiva) supplemented with 2% DMSO was used as running buffer, and solvent correction was applied. Compounds were tested by multi-cycle kinetics injections using a contact time of 60 sec., dissociation time of up to 300 sec., and a flow rate of 30 μl/min.
Solvent-corrected, reference-subtracted and blank-corrected data was processed and binding isotherms were fitted according to a single report point from each sensorgram (Standard: Late binding (5 sec. before injection end); alternative: Earlier report point according to binding profile). Data fitting was done both with unfixed Rmax and with Rmax fixed to the theoretical value* assuming 1:1 binding to allow processing of data from both weak and strong binders as well as to evaluate binding stoichiometry.
Positive controls were run at the beginning, during, and at the end of the screen to evaluate surface activity.
`CC(=O)Nc1ccc(-c2ccnc3c2cc(CN2CC[C@H](c4ccc(C(=O)N(C)C)cc4)[C@H](F)C2)n3C)cc1` [Example 1r5, N,N-Dimethyl-4-[(3S,4R)-1-[[4-(4-acetamidophenyl)-1-methyl-pyrrolo[2,3-b]pyridin-2-yl]methyl]-3-fluoro-4-piperidyl]benzamide]: the pKd was 6.96.
As for `CC(=O)Nc1ccc(-c2ccnc3c2cc(CN2CC[C@H](c4ccc(C(=O)N(C)C)cc4)[C@@H](C)C2=O)n3C)cc1` (single isomer, unassigned) [1aa2′], the negative logarithm of the Kd (pKd) is 6.94.
For `CNc1ccc(-c2ccnc3c2cc(CN2CCC(c4ccc(C(=O)N(C)C)cc4)CC2)n3C(C)C)cn1` [Example 1ad3, 4-[1-[[1-iso-Propyl-4-[6-(methylamino)-3-pyridyl]pyrrolo[2,3-b]pyridin-2-yl]methyl]-4-piperidyl]-N,N-dimethyl-benzamide], the pKd was 5.56.
On to `CNc1ccc(-c2ccnc3c2cc(CN2CCC(c4ccc(C(=O)N(C)C)cc4)CC2=O)n3C)cn1` (stereo in doubt) [Example 1s4, N,N-dimethyl-4-[(4S)-1-[[1-methyl-4-[6-(methylamino)-3-pyridyl]pyrrolo[2,3-b]pyridin-2-yl]methyl]-2-oxo-4-piperidyl]benzamide], for which the negative-log Kd (pKd) was 7.29.
Regarding `Cc1cc(C(=O)N(C)C)ccc1C1CCN([C@@H](C)c2cc3c(-c4ccc(N)nc4C#N)ccnc3n2C)CC1` [Example 1af27, (S)-4-(1-(1-(4-(6-Amino-2-cyanopyridin-3-yl)-1-methyl-1H-pyrrolo[2,3-b]pyridin-2-yl)ethyl)piperidin-4-yl)-N,N,3-trimethylbenzamide], the negative-log Kd (pKd) is 7.18.
For the compound `C[C@H](c1cc2c(-c3ccc(N)nc3C#N)ccnc2n1C)N1CC=C(c2ccc(C(=O)N(C)C)cc2)CC1` [Example 1af23, (R)-4-(1-(1-(4-(6-amino-2-cyanopyridin-3-yl)-1-methyl-1H-pyrrolo[2,3-b]pyridin-2-yl)ethyl)-1,2,3,6-tetrahydropyridin-4-yl)-N,N-dimethylbenzamide], the pKd is 7.34.
For `Cc1cc(C(=O)N(C)C)ccc1C1CCN([C@H](C)c2cc3c(-c4ccc(N)nc4C#N)ccnc3n2C)CC1` [Example 1af28, (R)-4-(1-(1-(4-(6-amino-2-cyanopyridin-3-yl)-1-methyl-1H-pyrrolo[2,3-b]pyridin-2-yl)ethyl)piperidin-4-yl)-N,N,3-trimethylbenzamide], the negative logarithm of the Kd (pKd) was 5.27.
Turning to `CNc1ccc(-c2ccnc3c2cc(CN2CCN(c4ccc(C(=O)N(C)C)cn4)CC2)n3C)nc1` [Example 1n9, N,N-Dimethyl-6-[4-[[1-methyl-4-[5-(methylamino)-2-pyridyl]pyrrolo[2,3-b]pyridin-2-yl]methyl]piperazin-1-yl]pyridine-3-carboxamide], the negative logarithm of the Kd (pKd) is 5.05.
Regarding `CN(C)C(=O)c1ccc(C2CCN(Cc3cc4c(-c5ccc6[nH]cc(C(=O)C(F)(F)F)c6c5)ccnc4n3C)CC2)cc1` [Example 1m145, N,N-dimethyl-4-(1-((1-methyl-4-(3-(2,2,2-trifluoroacetyl)-1H-indol-5-yl)-1H-pyrrolo[2,3-b]pyridin-2-yl)methyl)piperidin-4-yl)benzamide], the pKd was 6.60.
`C[C@@H]1C[C@@H](c2ccc(C(=O)N(C)C)cc2)CCN1Cc1cc2c(-c3ccc(N)nc3C#N)ccnc2n1C` (single isomer, unassigned) [Example 1q3]: the pKd was 5.37.
Regarding `[2H]C([2H])([2H])N(C(=O)c1ccc(C2CCN([C@@H](C)c3cc4c(-c5ccc(N)cn5)ccnc4n3C)CC2)c(C)c1)C([2H])([2H])[2H]` [Example 1af41, (S)-4-(1-(1-(4-(5-Aminopyridin-2-yl)-1-methyl-1H-pyrrolo[2,3-b]pyridin-2-yl)ethyl)-piperidin-4-yl)-3-methyl-N,N-bis(methyl-d3)benzamide], the pKd is 5.48.
Take `CNc1ccc(-c2ccnc3c2cc(CN2CCC(c4ccc(C(=O)N(C)C)cn4)CC2)n3C)nn1` [Example 1p5, N,N-Dimethyl-6-[1-[[1-methyl-4-[6-(methylamino)pyridazin-3-yl]pyrrolo[2,3-b]pyridin-2-yl]methyl]-4-piperidyl]pyridine-3-carboxamide]: the pKd is 6.83.
With `COc1c(N)ncc(-c2ccnc3c2cc(CN2CCC(c4ccc(C(=O)N(C)C)cc4)CC2)n3C)c1C` [Example 1k19, 4-[1-[[4-(6-Amino-5-methoxy-4-methyl-3-pyridyl)-1-methyl-pyrrolo[2,3-b]pyridin-2-yl]methyl]-4-piperidyl]-N,N-dimethyl-benzamide], the pKd was 6.13.
With `C[C@H]1CN(c2ccc(C(=O)N(C)C)cc2)CCN1Cc1cc2c(-c3ccc(N)nc3)ccnc2n1C` [Example 1n5, 4-[(3S)-4-[[4-(6-Amino-3-pyridyl)-1-methyl-pyrrolo[2,3-b]pyridin-2-yl]methyl]-3-methyl-piperazin-1-yl]-N,N-dimethyl-benzamide], the negative-log Kd (pKd) was 7.16.
Turning to `COC(=O)c1cc(N)ncc1-c1ccnc2c1cc(CN1CCC(c3ccc(C(=O)N(C)C)cc3)CC1)n2C` [Example 1k56, Methyl 2-amino-5-[2-[[4-[4-(dimethylcarbamoyl)phenyl]-1-piperidyl]methyl]-1-methyl-pyrrolo[2,3-b]pyridin-4-yl]pyridine-4-carboxylate], the pKd is 5.85.
`CN(C)C(=O)c1ccc(C2CCN(Cc3cc4c(-c5ccc(N)nc5CO)ccnc4n3C)CC2)cc1` [Example 1k58, 4-[1-[[4-[6-Amino-2-(hydroxymethyl)-3-pyridyl]-1-methyl-pyrrolo[2,3-b]pyridin-2-yl]methyl]-4-piperidyl]-N,N-dimethyl-benzamide]: the negative logarithm of the Kd (pKd) was 7.22.
To `[2H]C([2H])([2H])n1c(CN2CCC(c3ccc(C(=O)N(C)C)cc3)CC2)cc2c(-c3ccc(N)nc3C#N)ccnc21` [Example 1k45, 4-[1-[[4-(6-Amino-2-cyano-3-pyridyl)-1-(trideuteriomethyl)pyrrolo[2,3-b]pyridin-2-yl]methyl]-4-piperidyl]-N,N-dimethyl-benzamide] belongs 7.56; to `[2H]C([2H])([2H])NC(=O)c1ccc(C2CCN(Cc3cc4c(-c5ccc(N)nc5C#N)ccnc4n3C)CC2)cc1` [Example 1ae15, 4-[1-[[4-(6-Amino-2-cyano-3-pyridyl)-1-methyl-pyrrolo[2,3-b]pyridin-2-yl]methyl]-4-piperidyl]-N-(trideuteriomethyl)benzamide], 6.70; to `CN(C)C(=O)c1ccc(C2CCN(Cc3cc4c(-c5ccc(N)c(-c6nnn[nH]6)c5)ccnc4n3C)CC2)cc1` [Example 1k60, 4-[1-[[4-[4-Amino-3-(2H-tetrazol-5-yl)phenyl]-1-methyl-pyrrolo[2,3-b]pyridin-2-yl]methyl]-4-piperidyl]-N,N-dimethyl-benzamide], 7.44.
In the case of `[2H]C([2H])([2H])N(C(=O)c1ccc(C2=CCN([C@@H](C)c3cc4c(-c5ccc(N)cn5)ccnc4n3C)CC2)c(C)c1)C([2H])([2H])[2H]` [Example 1af31, (S)-4-(1-(1-(4-(5-aminopyridin-2-yl)-1-methyl-1H-pyrrolo[2,3-b]pyridin-2-yl)ethyl)-1,2,3,6-tetrahydropyridin-4-yl)-3-methyl-N,N-bis(methyl-d3)benzamide], the pKd was 6.77.
Take `C[C@H]1C[C@H](c2ccc(C(=O)N(C)C)cc2)CCN1Cc1cc2c(-c3ccc(N)cn3)ccnc2n1C` (stereo in doubt) [Example 1q8, N,N-dimethyl-4-[(2S,4R)-1-[[4-(5-amino-2-pyridyl)-1-methyl-pyrrolo[2,3-b]pyridin-2-yl]methyl]-2-methyl-4-piperidyl]benzamide]: the pKd was 5.40.
For the compound `CN(C)C(=O)c1ccc(C2CCN(Cc3cc4c(-c5cnc(N)nc5C#N)ccnc4n3C)CC2)cc1` [Example 1k41, 4-[1-[[4-(2-Amino-4-cyano-pyrimidin-5-yl)-1-methyl-pyrrolo[2,3-b]pyridin-2-yl]methyl]-4-piperidyl]-N,N-dimethyl-benzamide], the negative logarithm of the Kd (pKd) was 6.73.
Regarding `CN(C)C(=O)c1ccc(C2CCN(Cc3cc4c(-c5cnc(N)c(O)c5)ccnc4n3C)CC2)cc1` [Example 1k50, 4-[1-[[4-(6-Amino-5-hydroxy-3-pyridyl)-1-methyl-pyrrolo[2,3-b]pyridin-2-yl]methyl]-4-piperidyl]-N,N-dimethyl-benzamide], the negative-log Kd (pKd) is 6.25.
To `CC(=O)Nc1cc(C)c(-c2ccnc3c2cc(CN2CCC(c4ccc(C(=O)N(C)C)cc4)CC2)n3C)cn1` [Example 1k28, 4-[1-[[4-(6-Acetamido-4-methyl-3-pyridyl)-1-methyl-pyrrolo[2,3-b]pyridin-2-yl]methyl]-4-piperidyl]-N,N-dimethyl-benzamide] belongs 6.37; to `CN(C)C(=O)c1ccc([C@@H]2CCN(Cc3cc4c(-c5ccc(N)nc5)ccnc4n3C)C(=O)C2)cc1` [Example 1ae4, (R)—N,N-Dimethyl-4-[1-[[4-(6-amino-3-pyridyl)-1-methyl-pyrrolo[2,3-b]pyridin-2-yl]methyl]-2-oxo-4-piperidyl]benzamide], 7.61; to `[2H]C([2H])([2H])N(C(=O)c1ccc(C2CCN([C@@H](C)c3cc4c(-c5ccc(N)cn5)ccnc4n3C)CC2)cc1)C([2H])([2H])[2H]` [Example 1af35, (S)-4-(1-(1-(4-(5-Aminopyridin-2-yl)-1-methyl-1H-pyrrolo[2,3-b]pyridin-2-yl)-ethyl)piperidin-4-yl)-N,N-bis(methyl-d3)benzamide], 6.22.

As usually defined, the pKd is −log10 of the Kd, conventionally taken in molar units.

(Values after US20250340551A1, “SMALL MOLECULE MODULATORS OF STAT6” (Gilead Sciences, Inc., priority 2024, published 2025).)
